Laboratory results: US20100267712A1, “ISOINDOLINE COMPOUNDS FOR THE TREATMENT OF SPINAL MUSCULAR ATROPHY AND OTHER USES” (The United States of America, as represented by the …, priority 2007, published 2010)

Test system: SMN2-linked luciferase-reporter gene construct
Experiment: SMN Splice Reporter Assay (SMN2-linked luciferase reporter)
Assay type: cell-based
Conditions: for EC50: cervical carcinoma cell lines, SMN2 splice luciferase reporter; for Fold Increase: fold-increase of luciferase over baseline reading of transformed cells without any test compound
Text: As previously discussed, SMN1 is the gene deleted in SMA patients; the SMN2 gene remains intact in both SMA and normal patients. Therefore, SMN2 provides a potential means of increasing SMN production in SMA patients and is, thus, a target for developing SMA treatments. SMN2 is identical to SMN1 with the exception of a single base pair change that results in reduced expression of the gene. The reduction is based on the creation of an alternatively spliced RNA that produces an unstable protein carrying a deletion of exon 7. Both full length SMN and exon 7 deleted SMN are produced by the SMN2 gene via alternative RNA splicing, but the major product is the unstable deleted form.
Cervical carcinoma cell lines were transformed with a SMN2-linked luciferase-reporter gene construct. The reporter is designed to detect shifts in the alternative splicing of SMN2 sequences. In particular, the reporter is constructed as a fusion of the alternatively spliced sequences of the SMN2 gene and the luciferase gene. Luciferase sequences are in the correct translational reading frame only when the SMN2 sequences are spliced according to the normal SMN1 mechanism (e.g., splicing to include exon 7), which allows for translation of the stable SMN protein. Compounds were tested in the assay by administering the compound to the cell line and detecting an increase in the luciferase activity. The assay is described in greater detail in Zhang et al., Gene Ther., 8: 1532-8 (2001). Compounds were administered as described in Lunn et al, Chem. & Biol, 11: 1489-1493 (2004).
The results are reported as a fold-increase over a baseline reading of transformed cells without any test compound. The EC50 value also is reported in Table 1 for some exemplary compounds of the invention.

EC50 | Structure (SMILES) | Fold Increase
152 nM | Cn1ccc2ccc(N3Cc4cccc(N)c4C3=O)cc21 [Example 120429] | 1.745
306 nM | COCn1ccc2ccc(N3Cc4ccc(Br)cc4C3=O)cc21 [Example 120430] | 1.374
120 nM | COCn1ccc2ccc(N3Cc4ccc(OC)cc4C3=O)cc21 [Example 120431] | 1.311
830 nM | COc1ccc2c(c1)C(=O)N(c1ccc3c(c1)n(C)c(=O)n3C)C2 [Example 120432] | 1.234
977 nM | COc1ccc2c(c1)C(=O)N(c1ccc3[nH]c(=O)[nH]c3c1)C2 [Example 120433] | 1.296
54 nM | Cc1ccc2c(c1)CN(c1ccc3ccn(C)c3c1)C2=O [Example 120434] | 1.708
640 nM | Cn1ccc2ccc(N3Cc4ccccc4C3=O)cc21 [Example 120435] | 1.585
509 nM | Cn1ccc2ccc(N3Cc4ccc(OC(F)F)cc4C3=O)cc21 [Example 120591] | 1.709
112 nM | Cn1ccc2cc(N3Cc4cc(Br)ccc4C3=O)ccc21 [Example 120592] | 1.51
14 nM | COc1ccc2c(c1)C(=O)N(c1ccc3sc(C)nc3c1)C2 [Example 120593] | 1.322
777 nM | COc1ccc2c(c1)C(=O)N(c1ccc3c(c1)c(C)c(C)n3C)C2 [Example 120597] | 1.434
183 nM | COc1ccc2c(c1)C(=O)N(c1ccc3ncn(C)c3c1)C2 [Example 120598] | 1.552
2770 nM | COc1ccc2c(c1)C(=O)N(c1ccc3ccn(CC#N)c3c1)C2 [Example 120603] | 1.199
131 nM | Cn1ccc2cc(N3Cc4cc(Cl)ccc4C3=O)ccc21 [Example 120778] | 1.492
317 nM | Cn1ccc2ccc(N3Cc4cc(Cl)ccc4C3=O)cc21 [Example 120779] | 1.704
– | Cc1ccc2c(c1)CN(c1ccc3c(ccn3C)c1)C2=O [Example 120780] | 1.344
184 nM | COc1ccc2c(c1)CN(c1ccc3c(ccn3C)c1)C2=O [Example 120782] | 1.49
59 nM | COc1ccc2c(c1)C(=O)N(c1ccc3scnc3c1)C2 [Example 120785] | 1.353
679 nM | Cn1ccc2cc(N3Cc4c(Cl)cccc4C3=O)ccc21 [Example 120786] | 1.376
15 nM | O=C1c2cc3c(cc2CN1c1ccc2ncccc2c1)OCCO3 [Example 120787] | 1.807
– | Cn1ccc2ccc(N3Cc4c(Cl)cccc4C3=O)cc21 [Example 120788] | 1.25
9790 nM | COc1cc2c(cc1OC)C(=O)N(c1ccc3c(ccn3C)c1)C2 [Example 120789] | 1.427
238 nM | Cn1ccc2ccc(N3Cc4cccc(Cl)c4C3=O)cc21 [Example 120792] | 1.642

EC50 | Structure (SMILES) | Fold Increase
361 nM | Cn1ccc2cc(N3Cc4cccc(Cl)c4C3=O)ccc21 [Example 120793] | 1.395
373 nM | Cn1ccc2ccc(N3Cc4ccc(-c5ccccc5)cc4C3=O)cc21 [Example 120949] | 1.816
984 nM | Cn1ccc2ccc(N3Cc4ccc(Cl)cc4C3=O)cc21 [Example 120950] | 1.482
135 nM | COc1ccc2c(c1)CN(c1ccc3ncccc3c1)C2=O [Example 120951] | 1.769
414 nM | Cc1cccc2c1CN(c1ccc3c(ccn3C)c1)C2=O [Example 120952] | 1.374
1160 nM | Cc1cccc2c1CN(c1ccc3ccn(C)c3c1)C2=O [Example 120953] | 1.495
2040 nM | COc1cc2c(cc1OC)C(=O)N(c1ccc3ncccc3c1)C2 [Example 120954] | 1.356
1250 nM | COc1cccc2c1CN(c1ccc3ncccc3c1)C2=O [Example 120956] | 1.329
– | COc1ccc2c(c1)C(=O)N(c1ccc3ocnc3c1)C2 [Example 120957] | 1.254
– | CC(=O)Nc1cccc2c1CN(c1ccc3c(ccn3C)c1)C2=O [Example 121074] | 1.078
– | CC(=O)Nc1cccc2c1CN(c1ccc3ccn(C)c3c1)C2=O [Example 121075] | 1.087
49 nM | COc1ccc2c(c1)C(=O)N(c1ccc3c(ccn3C(C)=O)c1)C2 [Example 121076] | 1.295
– | COc1ccc2c(c1)C(=O)N(c1ccc3c(c1)CC(=O)N3)C2 [Example 121077] | 1.107
– | COc1ccc2c(c1)C(=O)N(c1cnc3[nH]ccc3c1)C2 [Example 121078] | 1.246
42 nM | COc1ccc2c(c1)C(=O)N(c1cnc3c(ccn3C)c1)C2 [Example 121079] | 1.385
– | COc1ccc2c(c1)C(=O)N(c1ccc3ccn(CCN)c3c1)C2 [Example 121080] | 1.163
177 nM | CC(=O)Nc1cccc2c1C(=O)N(c1ccc3c(ccn3C)c1)C2 [Example 121081] | 1.581
825 nM | CC(=O)Nc1cccc2c1C(=O)N(c1ccc3ccn(C)c3c1)C2 [Example 121082] | 1.496
– | COc1ccc2c(c1)C(=O)N(c1ccc3ccn(CCNC(C)=O)c3c1)C2 [Example 121083] | 1.083
1590 nM | Cn1ccc2ccc(N3Cc4ccc(N)cc4C3=O)cc21 [Example 121256] | 1.638
175 nM | Cn1ccc2ccc(N3Cc4cc(N)ccc4C3=O)cc21 [Example 121257] | 1.856
35 nM | COc1ccc2c(c1)C(=O)N(c1ccc3ccn(C(C)=O)c3c1)C2 [Example 121260] | 1.414
336 nM | COc1ccc2c(c1)C(=O)N(c1ccc3ncoc3c1)C2 [Example 121262] | 1.317

EC50 | Structure (SMILES) | Fold Increase
161 nM | COc1ccc2c(c1)C(=O)N(c1ccc3c(ccn3C)n1)C2 [Example 121263] | 1.39
422 nM | Cc1ccc2c(c1)C(=O)N(c1ccc3ccn(C)c3c1)C2 [Example 121504] | 1.742
1040 nM | CC(=O)Nc1ccc2c(c1)CN(c1ccc3ccn(C)c3c1)C2=O [Example 121506] | 1.488
34 nM | Cc1ccc2c(c1)C(=O)N(c1ccc3c(ccn3C)c1)C2 [Example 121507] | 1.411
– | CC(=O)Nc1ccc2c(c1)CN(c1ccc3c(ccn3C)c1)C2=O [Example 121508] | 1.201
3710 nM | COc1cccc2c1CN(c1ccc3sccc3c1)C2=O [Example 121509] | 1.564
159 nM | Cn1ccc2cc(N3Cc4ccc(O)cc4C3=O)ccc21 [Example 121510] | 1.542
113 nM | COc1ccc2c(c1)CN(c1ccc3ccsc3c1)C2=O [Example 121511] | 1.808
226 nM | O=C1c2cc(OC(F)F)ccc2CN1c1ccc2ccsc2c1 [Example 121512] | 1.766
749 nM | COc1cccc2c1CN(c1ccc3ccsc3c1)C2=O [Example 121513] | 1.612
– | COc1ccc2c(c1)C(=O)N(c1cc3cc[nH]c3cn1)C2 [Example 121514] | 1.172
222 nM | COc1ccc2c(c1)C(=O)N(c1ccc3[nH]ccc3n1)C2 [Example 121515] | 1.24
45 nM | COc1ccc2c(c1)CN(c1ccc3sccc3c1)C2=O [Example 121643] | 1.778
115 nM | O=C1c2cc(OC(F)F)ccc2CN1c1ccc2sccc2c1 [Example 121644] | 1.801
– | COc1ccc2c(c1)C(=O)N(c1ccc3nccc(O)c3c1)C2 [Example 121645] | 1.093
80 nM | CCCOc1ccc2c(c1)C(=O)N(c1ccc3c(ccn3C)c1)C2 [Example 121785] | 1.29
188 nM | COc1ccc2c(c1)C(=O)N(c1ccc3c(ccc[n+]3[O-])c1)C2 [Example 121786] | 1.498
– | O=C1c2cc(OC(F)F)ccc2CN1c1ccc2c(ccn2C(F)F)c1 [Example 121787] | 1.221
– | COc1ccc2c(c1)C(=O)N(c1ccc3c(ccn3C(F)F)c1)C2 [Example 121788] | 1.19
556 nM | Cn1ccc2cc(N3Cc4ccc(S(C)(=O)=O)cc4C3=O)ccc21 [Example 121790] | 1.336
1060 nM | COc1ccc2c(c1)C(=O)N(c1ccc3ncncc3c1)C2 [Example 121791] | 1.448
